# Test results: ChEMBL document CHEMBL5303304, “EUbOPEN Chemogenomics Library - IncuCyte” (2023)
# How the values were obtained:
# Type in all cases: toxicity, cell-based
# [1] = test system: Fibroblast; test: Incucyte cell viability with human fibroblast; settings: 10 µM, compound concentration 10 uM
# [2] = test system: HEK-293T; test: Incucyte cell viability with HEK293T; settings: human, 10 µM, compound concentration 10 uM
# [3] = test system: U2OS; test: Incucyte cell viability with U2OS; settings: human, 10 µM, compound concentration 10 uM
# Further: unitless GR value; below 1 slowed growth and below 0 cell loss.
Structure (SMILES),"Growth Rate ([1]; 0 h, replicate number 2)","Growth Rate ([1]; 6 h, replicate number 2)","Growth Rate ([1]; 12 h, replicate number 2)","Growth Rate ([1]; 18 h, replicate number 2)","Growth Rate ([1]; 24 h, replicate number 2)","Growth Rate ([2]; 0 h, replicate number 1)","Growth Rate ([2]; 0 h, replicate number 2)","Growth Rate ([3]; 6 h, replicate number 1)","Growth Rate ([3]; 12 h, replicate number 2)","Growth Rate ([1]; 0 h, replicate number 1)","Growth Rate ([1]; 6 h, replicate number 1)","Growth Rate ([1]; 24 h, replicate number 1)","Growth Rate ([2]; 6 h, replicate number 1)","Growth Rate ([2]; 12 h, replicate number 1)","Growth Rate ([2]; 12 h, replicate number 2)","Growth Rate ([2]; 18 h, replicate number 1)","Growth Rate ([2]; 18 h, replicate number 2)","Growth Rate ([2]; 24 h, replicate number 1)","Growth Rate ([3]; 12 h, replicate number 1)","Growth Rate ([3]; 24 h, replicate number 1)",further results
Cc1cc(CN(CC(=O)Nc2ccc(Cl)cc2Cl)C2CCCCC2)ccc1OCC(=O)O,-0.93,0.35,0.9,0.88,0.87,0.78,0.19,0.64,0.97,–,–,–,–,–,–,–,–,–,–,–,–
COCc1c(-c2cc3cc(C)cc(OC)c3s2)c2c(N)ncnn2c1CN[C@@H]1CCNC1=O,–,–,–,0.77,0.98,-0.25,-0.02,0.62,0.77,-1,0.36,0.46,0.47,0.43,0.2,0.61,0.49,0.62,0.45,0.44,"Growth Rate ([1]; 12 h, replicate number 1): 0.6; Growth Rate ([1]; 18 h, replicate number 1): 0.59; Growth Rate ([2]; 6 h, replicate number 2): 0.58; Growth Rate ([2]; 24 h, replicate number 2): 0.65; Growth Rate ([3]; 0 h, replicate number 2): 0.73; Growth Rate ([3]; 18 h, replicate number 1): 0.84; Growth Rate ([3]; 18 h, replicate number 2): 0.85; Growth Rate ([3]; 24 h, replicate number 2): 0.9"
CCn1c(=O)c2c(C)c(C(=O)N3CCC(O)CC3)sc2n(CCC(F)(F)F)c1=O,0.25,–,–,–,0.97,0.93,0.32,–,0.97,–,–,–,0.41,0.79,–,0.74,0.86,0.83,–,–,"Growth Rate ([3]; 6 h, replicate number 2): 0.72; Growth Rate ([3]; 18 h, replicate number 2): 0.97"
COc1ccc(-c2c(-c3ccccc3)oc3ncnc(O[C@H](C)CCCCC(=O)O)c23)cc1,–,-0.43,0.48,0.98,–,0.1,0.14,–,–,-1,0.79,0.88,–,–,–,–,–,–,0.94,–,–
O=C(NCCN1CCOCC1)c1ccc2nn(CCOc3ccc(Cl)cc3)cc2c1,-0.92,0.87,0.78,0.98,–,0.54,0.3,0.71,0.88,-1,0.63,0.92,0.47,0.82,0.18,0.71,0.47,0.72,–,0.93,"Growth Rate ([1]; 18 h, replicate number 1): 0.86; Growth Rate ([2]; 6 h, replicate number 2): 0.26; Growth Rate ([2]; 24 h, replicate number 2): 0.61; Growth Rate ([3]; 0 h, replicate number 2): 0.25; Growth Rate ([3]; 6 h, replicate number 2): 0.98"
O=C(O)CCCCN(CCc1cc(F)ccc1OCc1ccc(-c2ccc(C(F)(F)F)cc2)cc1)Cc1ccc(C(=O)O)cc1,-0.98,–,–,–,–,0.09,-0.87,0.61,0.87,-1,0.59,0.96,–,–,–,–,–,–,–,–,"Growth Rate ([1]; 12 h, replicate number 1): 0.66; Growth Rate ([1]; 18 h, replicate number 1): 0.85; Growth Rate ([3]; 0 h, replicate number 1): 0.99; Growth Rate ([3]; 0 h, replicate number 2): -0.4; Growth Rate ([3]; 6 h, replicate number 2): 0.58; Growth Rate ([3]; 18 h, replicate number 2): 0.85; Growth Rate ([3]; 24 h, replicate number 2): 0.91"
CCS(=O)(=O)Nc1cccc(Oc2cncc(Nc3ccc(I)cc3F)c2C(N)=O)c1,–,–,–,–,–,0.82,–,0.71,0.76,–,0.99,–,0.77,0.82,0.71,0.77,0.58,0.74,–,0.84,"Growth Rate ([2]; 24 h, replicate number 2): 0.69; Growth Rate ([3]; 6 h, replicate number 2): 0.62; Growth Rate ([3]; 18 h, replicate number 1): 0.92; Growth Rate ([3]; 24 h, replicate number 2): 0.98"
Oc1c(-c2cccnc2)cnn1-c1ccccn1,0.86,–,–,0.44,0.59,0.54,-0.2,0.87,–,–,–,0.87,0.91,–,–,–,–,–,–,0.84,–
Cl.O=c1cc(C2CCNCC2)n2nc3cccc(Cl)c3c2[nH]1,-0.98,–,–,–,–,-0.29,-0.61,0.98,1,-0.94,–,–,–,–,0.58,–,0.96,–,–,–,"Growth Rate ([2]; 24 h, replicate number 2): 0.91; Growth Rate ([3]; 0 h, replicate number 1): 0.61; Growth Rate ([3]; 18 h, replicate number 1): 0.98"
CC[C@@H](CO)Nc1nc(Nc2cccc(NC(=O)C(C)(C)C)c2)ncc1F,0.61,–,–,–,–,0.29,–,0.56,0.83,–,–,–,–,0.87,–,–,–,0.96,0.66,0.91,"Growth Rate ([3]; 0 h, replicate number 2): 0.94; Growth Rate ([3]; 6 h, replicate number 2): 0.8; Growth Rate ([3]; 18 h, replicate number 1): 0.87; Growth Rate ([3]; 18 h, replicate number 2): 0.86; Growth Rate ([3]; 24 h, replicate number 2): 0.89"
CC(C)(C)c1cc(NC(=O)c2csc(Nc3ccc(Cl)cc3)n2)no1,–,–,0.46,0.74,0.87,0.27,-0.44,–,–,-1,0.89,0.8,–,–,0.99,0.94,–,0.97,–,-0.59,"Growth Rate ([2]; 6 h, replicate number 2): 0.84"
CC(C)(C)OC(=O)CN1C(=O)c2c(OCC(=O)O)cccc2Oc2ccc(C(F)(F)F)cc21,–,-0.59,0.43,0.87,–,0.31,-0.65,0.75,–,–,0.95,–,0.69,0.61,–,0.76,–,0.75,0.85,0.89,"Growth Rate ([3]; 0 h, replicate number 1): 0.59; Growth Rate ([3]; 18 h, replicate number 1): 0.83"
C[C@@H]1CC(=O)N(C2CC2)N=C1c1ccc(NC(=O)N2Cc3ccncc3C2)cc1,-0.77,-0.07,0.57,0.85,0.81,0.95,-0.07,0.59,–,-0.95,0.8,–,0.41,0.41,0.67,0.46,0.53,0.28,0.94,0.95,"Growth Rate ([2]; 6 h, replicate number 2): 0.39; Growth Rate ([2]; 24 h, replicate number 2): 0.32"
Cc1nn(-c2ccccc2)c(Nc2ccccc2C(=O)O)c1-c1cc2nccnc2c(F)c1F,-0.36,-0.17,–,0.57,0.79,0.45,-0.55,0.75,–,–,0.39,–,–,–,–,–,–,–,1,–,–
